In patent publication US7892767B2, “Phosphospecific chemokine receptor antibodies” (Washington University in St. Louis, priority 2005, dated 2011):

Columns and labels:
[1] = system: Nf1+/+ astrocytes; assay: Intracellular cAMP by ELISA, Nf1+/+ astrocytes; assay type: cell-based, mouse; conditions: 0.1 μg/ml CXCL12, 45-minute period
Method: cAMP measurements. cAMP was measured by ELISA (Cayman Chemical Company, Ann Arbor, Mich. or Assay Designs, Ann Arbor, Mich.). Briefly, astrocyte cultures were lysed in 0.1 N HCl. After the removal of cellular debris, soluble cellular extract was dried down and resuspended in EIA buffer. Experimental samples and cAMP standard curve were acetylated to increase the sensitivity of the assay and incubated with cAMP ACHe tracer and cAMP EIA anti-serum overnight at 4° C. according to the manufacturer's instructions. After extensive washing, bound antibody was measured by spectrophotometric analysis. Concentrations of cAMP were derived from comparison with standard curve according to manufacturer's instructions.
We evaluated the time dependent changes in intracellular cAMP in Nf1+/+ and Nf1−/− astrocytes after exposure to 0.1 μg/ml CXCL12. […] However, in Nf1+/+ astrocytes, intracellular levels of cAMP rapidly recovered to baseline and oscillated between baseline and 40% of baseline over the 45-minute experimental period (FIG. 10B).
We hypothesized that if cooperative signaling between Nf1 loss and CXCR4 activation promotes tumor formation through the suppression of cAMP, then agents that alter intracellular cAMP should modulate CXCL12 responses. We treated astrocytes with the adenylyl cyclase (AC) activator forskolin in the presence and absence of CXCL12. […] In these experiments, forskolin elevated intracellular cAMP levels in both Nf1+/+ and Nf1−/− astrocytes with peak values of 17.8+/−0.4 and 19.4+/−4.5 pmol/mg of protein, respectively, after 24 hours of treatment. The effect of forskolin was not abrogated by co-treatment with CXCL12. Under these conditions, cAMP levels were 17.9+/−2.5 and 10.4+/−5.8 pmol/mg of total protein in Nf1+/+ and Nf1−/− astrocytes, respectively. […] The effect of forskolin on CXCL12-mediated Nf1−/− apoptosis was evidenced by changes in the percentage of Nf1−/− astrocytes in the sub-G0 fraction of the cell cycle (FIG. 11B). Thus while astrocyte growth is dependent upon MEK and PI3 kinase activity, CXCL12-induced Nf1−/− astrocyte growth requires the suppression of intracellular cAMP levels.

[2] = target: T1, CXCR4 (Mus musculus, UniProt P70658); assay: CXCL12-induced CXCR4 phosphorylation (pCXCR4 western blot), wild-type (Nf1+/+) astrocytes; assay type: cell-based; conditions: CXCL12 0.1 μg/ml, at 5 minutes
T1 construct: endogenous in cells; host or cells: primary mouse astrocytes (Nf1 flox/flox, infected with Ad-LacZ or Ad-Cre)
Method: Western Blot Analysis. Whole-cell extracts were obtained by lysing cells with lysis buffer (20 mM Tris pH 7.4, 137 mM NaCl, 10% Glycerol and 1% Triton-X-100) supplemented with phosphatase inhibitor cocktail set II (Calbiochem, La Jolla, Calif.), PMSF (1 mM), leupeptin, (0.005 mg/ml) and aprotinin (0.005 mg/ml). The proteins were resolved with 10% Bis-Tris gels (Invitrogen) and transferred onto the nitrocellulose membrane Hybond ECL (Amersham, Piscataway, N.J.) according to standard protocols. Membranes were incubated with polyclonal antibodies CXCR4 (1:500), pErk½ (1:1200), pan Erk½ (1:150), pAkt (1:500), pan Akt (1:1000), pGRK2 (1:250), and pCXCR4 (1:200) overnight at 4° C. This was followed by incubation with horseradish peroxidase-conjugated secondary antibody (1:15,000; Bio-Rad). Peroxide activity was detected using the enhanced chemiluminescence Supersignal West Dura system (Pierce, Rockford, Ill.) Mouse anti-actin antibody was used as a loading control. Quantitation of western blots was performed by densitometry using Image J software from the NIH.
Among the primary mechanisms for controlling GPCR effects on cAMP production is receptor desensitization (140). This process is initiated when ligand occupied GPCR (e.g., CXCR4) is phosphorylated by G protein receptor kinase (GRK). […]

[3] = system: GPCs; assay: Cell number by trypan blue exclusion, primary GPCs; assay type: cell-based, mouse; conditions: CXCL12 1 μg/ml, 24 hours
Method: Primary granule neuron cultures. Primary cultures of purified GPCs were prepared from 6 day-old BALB/C mice as described (58). Cerebella were dissected and meninges were removed. After incubation with 0.1% trypsin (Sigma) in HBSS with 125 units/ml Dnase (Sigma), 0.5 mM EDTA for 20 minutes at 37° C., cells were pelleted and washed three times with HBSS. The final cell suspension was passed through a […] nylon mesh cell strainer (Falcon, Franklin Lakes, Mich.). Cells were diluted to 2×10^6 cells/ml in DMEM/F12 (Gibco BRL, Gaithersburg, Md.) supplemented with N2 (Gibco BRL), 20 mM KCl, and 36 mM glucose.
Growth factor and drug treatment. Following serum-starvation for 24 hours, astrocytes, granule cells, U87 cells and Daoy cells, were treated with 1 μg/ml CXCL12 (PeproTech), […] AMD3465 (kind gift from Simon Fricker, AnorMED, Langley, BC, Canada) (200 μM Rolipram (Sigma), or 10 μM Forskolin (Sigma) as indicated.

[4] = system: PDE4A-expressing U87 cells; assay: Viable cell number, PDE4A-expressing U87 cells; assay type: cell-based, human; conditions: CXCL12 1 μg/ml, AMD 3465 2.5 μg/ml, Rolipram 200 μM
Method: PDE4A expression. U87 and Daoy cells (15,000 cells) were transiently transfected for 48 h with a plasmid encoding a transgene for the tet-off transactivator (tTA) alone (kind gift from Dr. Louis Muglia, Washington University School of Medicine, St. Louis, Mo.), a plasmid containing a transgene for tet-off regulated expression of phosphodiesterase 4A (PDE4A) alone (kind gift from Dr. James Cherry, Boston University, Boston, Mass.), or a combination of both plasmids, using lipofectamine (Invitrogen) according to the manufacturer's instructions. Plasmid DNA (2 μg) was mixed with lipofectamine (5 μl) per 35 mm^2 dish. Transfection proceeded for 9 hours prior to exchanging transfection media for αMEM supplemented with 10% FCS.

T1 sequence (P70658 whole entry): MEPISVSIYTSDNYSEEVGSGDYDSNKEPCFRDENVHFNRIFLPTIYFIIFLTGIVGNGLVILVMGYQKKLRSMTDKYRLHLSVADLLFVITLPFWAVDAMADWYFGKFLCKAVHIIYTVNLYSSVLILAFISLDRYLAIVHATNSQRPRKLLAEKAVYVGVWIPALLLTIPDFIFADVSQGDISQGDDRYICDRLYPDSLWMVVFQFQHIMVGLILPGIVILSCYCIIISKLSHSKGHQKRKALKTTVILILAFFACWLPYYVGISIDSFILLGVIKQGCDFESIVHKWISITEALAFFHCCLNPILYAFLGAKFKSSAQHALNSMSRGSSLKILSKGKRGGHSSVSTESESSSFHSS

## CXCL12: chemokine ligand of CXCR4 (Peprotech)
[1]
  integrated area under the cAMP curve: 2.70
  intracellular cAMP, lower level of oscillation: 40 % of baseline
[2]
  increase in pCXCR4: 2.6+/−0.06 fold
[3]
  effect on cell number: no effect
[4]
  effect on cell number: no longer any benefit
